Measured values taken from patent US10208059B2, “Heterocyclic modulators of HIF activity for treatment of disease” (Board of Regents, University of Texas System, priority 2012, dated 2019).
Entries after “also recorded” stand apart in the source; their conditions may differ. Structures can show the parent of a compound that is named as a salt.

Assays:
293T-HRE-GFP-luc cells = assay: Cell-based reporter assay for IC50 determinations; conditions: hypoxia 6 hrs (1% O2), luminescence, read-out: IC50 Classification
Outline: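 IC50 comes from a four-parameter logistic fit of luminescence from HRE-GFP-luc 293T cells. Compounds (1:3 series, 1:50 medium dilution) were preincubated 30 min under normoxia, followed by 6 h at 1% O2, 5% CO2, 37 °C, before Steadylite luciferase detection.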

NB-1 cells = assay: Neuroblastoma cellular assay, cell numbers; format: cell-based; conditions: various concentrations
Excerpt: (§1) NB-1, Gli56, and D423 cell lines are deleted for ENO-1 (GLI56 and D423) or PGD, which renders them with reduced glycolytic capacity (Muller, F. et al., Nature, 2012, 488, 337-42).

D423 cells = assay: Glioblastoma cellular assay, cell numbers; format: cell-based; conditions: various concentrations
Excerpt: as §1

Gli56 cells = assay: Glioblastoma cellular assay, cell numbers; format: cell-based; conditions: various concentrations
Excerpt: as §1

H460 xenografts = assay: H460 non-small cell lung cancer xenograft model; format: in vivo, mice
Protocol: H460 cells were implanted subcutaneously in CD-1 nude mice and treated with 150 mpk qdx14 PO of the compound of Example 2 delivered by oral gavage for 14 days. Animals were randomized into study groups and the study initiated when the average tumor volume was 400 mm^3. During treatment, tumor volume was measured three times per week to determine tumor growth over the course of the study (FIG. 6). Nine tumor bearing mice were included in each group. On day 15, 3 hours prior to take down, hypoxyprobe (Hypoxyprobe, Inc. cat # HP3) was injected into mice. Tumor sections were stained (dark areas) for the level of hypoxia utilizing an anti-hypoxyprobe antibody and standard IHC methods (FIG. 7). The same tumors were stained for the expression of HIF regulated gene carbonic anhydrase IX (CA9) using standard IHC methods (FIG. 8).

TMD8 cells = assay: Diffuse large B-cell lymphoma (DLBCL) assay, viable cells; format: cell-based; conditions: varying concentrations, 7 days, Guava ViaCount
Protocol: Diffuse Large B-Cell Lymphoma (DLBCL) Assay
Equal number of TMD8 cells were plated and treated with varying concentrations of the compound of Example 80 for 7 days. Percent of viable cells was determined using Guava ViaCount reagents (EMD Millipore cat #4000-0040) that contains proprietary dyes that enable the determination of the number of live and dead cells in a sample (FIG. 1).

OCI-AML3 cells = assay: Acute myeloid leukemia cell viability; format: cell-based; conditions: various concentrations, 2 days, normalized to DMSO control
Protocol: (§2) The OCI-AML3 cell line was treated with various concentrations of compound for 2 days and the percent of viable cells normalized to control cells treated with DMSO (FIG. 9). OCI-AML3 cells constitutively expressing luciferase were tail vein injected in NSG nude mice. 17 days after cell injection, luciferin was injected into animals and luciferase signal was measured using an IVIS imaging system to determine tumor burden and for randomization of subjects into study groups. On day 18, animals began receiving daily oral doses of vehicle or 10 mpk of the compound of Example 80 which continued throughout the study. On day 28, imaging was performed again to determine tumor burden (FIG. 10).

[1] = system: OCI-AML3 models in NSG mice; assay: Human leukemia model, OCI-AML3 in NSG mice; format: in vivo; conditions: 10 mg/kg daily oral
Protocol: as §2

NB-1 xenografts = assay: NB-1 xenograft model; format: in vivo; conditions: daily oral 10 mg/kg (b1183 says 40 mpk), CD-1 nude mice
Protocol: To establish activity and provide in vivo proof of concept, NB-1 cells were implanted into CD-1 nude mice and treated with 40 mpk of the compound of Example 80 po or vehicle daily when tumors reached 400-500 mm^3. Tumor size was measured 3×/week using caliper measurements (FIG. 5).

With `Cc1nc(-c2nc(-c3ccc(OC(F)(F)F)cc3)no2)nn1Cc1ccnc(N2CCN(C)CC2)c1` [Example 2, 5-(5-Methyl-1-((2-(4-methylpiperazin-1-yl)pyridin-4-yl)methyl)-1H-1,2,4-triazol-3-yl)-3-(4-(trifluoromethoxy)phenyl)-1,2,4-oxadiazole] the IC50 (293T-HRE-GFP-luc cells) was under 100 nM, the “cell death in NB-1 cells” value (NB-1 cells) was “readily apparent” and the “number of viable NB-1 cells” value (NB-1 cells) was “significantly reduced; also recorded: reduced number of viable cells”. The “number of viable D423 cells” value (D423 cells) was “significantly reduced; also recorded: reduced number of viable cells”, the “cell death in Gli56 cells” value (Gli56 cells) was “readily apparent” and the “number of viable Gli56 cells” value (Gli56 cells) was “significantly reduced”. For the same compound, the “tumor growth of H460 xenografts” value (H460 xenografts; 150 mg/kg daily oral for 14 days, CD-1 nude mice) was “inhibited the growth; also recorded: reduces the tumor growth”, the “level of HIF regulated gene carbonic anhydrase IX (CAIX/CA9) in H460 xenografts (IHC)” value (H460 xenografts; 150 mg/kg daily oral, day 15) was “elimination of hypoxia and CA9 protein expression; also recorded: reduce the level of CAIX” and the “level of hypoxia in H460 xenografts (hypoxyprobe IHC)” value (H460 xenografts; 150 mg/kg daily oral, day 15) was “elimination of hypoxia; also recorded: reduce the level of hypoxia”.
For `Cc1nc(-c2nc(-c3ccc(OC(F)(F)F)cc3)no2)nn1Cc1cccc(N2CCC(S(C)(=O)=O)CC2)c1` [Example 80, 4-Methanesulfonyl-1-{3-[(5-methyl-3-{3-[4-(trifluoromethoxy)phenyl]-1,2,4-oxadiazol-5-yl}-1H-1,2,4-triazol-1-yl)methyl]phenyl}piperidine], the IC50 (293T-HRE-GFP-luc cells) was under 100 nM, the “number/percent of viable TMD8 cells” value (TMD8 cells) was “respond robustly; also recorded: reduced number of viable cells” and the “cell death in NB-1 cells” value (NB-1 cells) was “readily apparent”. The “number of viable NB-1 cells” value (NB-1 cells) was “significantly reduced; also recorded: reduced number of viable cells”, the “number of viable D423 cells” value (D423 cells) was “significantly reduced; also recorded: reduced number of viable cells” and the “cell death in Gli56 cells” value (Gli56 cells) was “readily apparent”. For the same compound, the “number of viable Gli56 cells” value (Gli56 cells) was “significantly reduced; also recorded: reduced number of viable cells”, the “number of viable OCI-AML3 cells” value (OCI-AML3 cells) was “reduced number of viable cells” and the “disease burden (tumor burden) by IVIS imaging” value [1] was “reduces disease burden”. For the same compound, the survival ([1]; relative to vehicle) was “significantly increased their survival; also recorded: extends survival” and the “tumor growth of NB-1 xenografts” value (NB-1 xenografts) was “reduces the tumor growth”.
`Cc1nc(-c2noc(-c3ccc(OC(F)(F)F)cc3)n2)nn1Cc1cccc(N2CCOCC2)c1` [Example 57, 4-(3-((5-Methyl-3-(5-(4-(trifluoromethoxy)phenyl)-1,2,4-oxadiazol-3-yl)-1H-1,2,4-triazol-1-yl)methyl)phenyl)morpholine] showed an IC50 (293T-HRE-GFP-luc cells) of under 100 nM.
Compound `COc1nccc(Cn2nc(-c3nc(-c4ccc(OC(F)(F)F)cc4)no3)nc2C)n1` [Example 115, 5-(1-((2-methoxypyrimidin-4-yl)methyl)-5-methyl-1H-1,2,4-triazol-3-yl)-3-(4-(trifluoromethoxy)phenyl)-1,2,4-oxadizole] has an IC50 (293T-HRE-GFP-luc cells) of 1000 to 10000 nM.
With `Cc1nc(-c2nc(-c3ccc(OC(F)(F)F)cc3)no2)nn1Cc1cccc(N2CCN(C)CC2)c1` [Example 25, 1-methyl-4-(3-((5-methyl-3-(3-(4-(trifluoromethoxy)phenyl)-1,2,4-oxadiazol-5-yl)-1H-1,2,4-triazol-1-yl)methyl)phenyl)piperazin-1-ium trifluoroacetate] the IC50 (293T-HRE-GFP-luc cells) was under 100 nM.
`COc1cccc(Cn2nc(-c3nc(-c4ccc(OC(F)(F)F)cc4)no3)nc2C)c1` [Example 101, 5-(1-(3-methoxybenzyl)-5-methyl-1H-1,2,4-triazol-3-yl)-3-(4-(trifluoromethoxy)phenyl)-1,2,4-oxadiazole] was tested, and the IC50 (293T-HRE-GFP-luc cells) was 100 to 1000 nM.
`Cc1nc(-c2nnc(-c3ccc(C(C)(C)C)cc3)o2)nn1Cc1cccc(N2CCN(C)CC2)c1` [Example 8, 2-(4-(tert-Butyl)phenyl)-5-(5-methyl-1-(3-(4-methylpiperazin-1-yl)benzyl)-1H-1,2,4-triazol-3-yl)-1,3,4-oxadiazole] showed an IC50 (293T-HRE-GFP-luc cells) of under 100 nM.
